According to ChEMBL document CHEMBL4818984, “Kojic acid-natural product conjugates as mushroom tyrosinase inhibitors” (Eur J Med Chem, 2020):
Each block holds one molecule with its values, some of them ahead of it. The source made the active and inactive calls. No cut-off for these calls is given here.

Tests used:
[1] = Antioxidant activity assessed as DPPH radical scavenging activity at 10 uM; type: functional
Tyrosinase [2] = molecular target: T1, Tyrosinase (Agaricus bisporus, UniProt O42713); assay: Inhibition of mushroom tyrosinase assessed as reduction in dopachrome formation using L-DOPA as substrate by ELISA
T1 sequence (O42713 whole entry): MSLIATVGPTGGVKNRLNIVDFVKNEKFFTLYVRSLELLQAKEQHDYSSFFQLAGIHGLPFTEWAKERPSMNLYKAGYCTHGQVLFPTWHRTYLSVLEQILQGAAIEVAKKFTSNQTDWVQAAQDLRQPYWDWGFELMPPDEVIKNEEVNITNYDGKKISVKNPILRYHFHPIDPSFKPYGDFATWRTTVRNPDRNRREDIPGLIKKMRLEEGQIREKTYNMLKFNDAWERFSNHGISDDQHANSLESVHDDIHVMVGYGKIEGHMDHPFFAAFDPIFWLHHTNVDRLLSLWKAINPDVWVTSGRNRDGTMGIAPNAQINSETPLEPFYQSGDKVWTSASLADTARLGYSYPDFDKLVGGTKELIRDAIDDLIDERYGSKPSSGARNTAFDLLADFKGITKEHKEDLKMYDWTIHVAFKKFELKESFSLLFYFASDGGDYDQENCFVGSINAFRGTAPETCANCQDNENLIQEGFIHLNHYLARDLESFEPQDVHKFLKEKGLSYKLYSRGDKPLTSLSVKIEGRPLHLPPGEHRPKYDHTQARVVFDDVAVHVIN

Tyrosinase [3] = molecular target: T2, Tyrosinase (Homo sapiens, UniProt P14679); assay: Inhibition of tyrosinase (unknown origin)
T2 sequence (P14679 whole entry): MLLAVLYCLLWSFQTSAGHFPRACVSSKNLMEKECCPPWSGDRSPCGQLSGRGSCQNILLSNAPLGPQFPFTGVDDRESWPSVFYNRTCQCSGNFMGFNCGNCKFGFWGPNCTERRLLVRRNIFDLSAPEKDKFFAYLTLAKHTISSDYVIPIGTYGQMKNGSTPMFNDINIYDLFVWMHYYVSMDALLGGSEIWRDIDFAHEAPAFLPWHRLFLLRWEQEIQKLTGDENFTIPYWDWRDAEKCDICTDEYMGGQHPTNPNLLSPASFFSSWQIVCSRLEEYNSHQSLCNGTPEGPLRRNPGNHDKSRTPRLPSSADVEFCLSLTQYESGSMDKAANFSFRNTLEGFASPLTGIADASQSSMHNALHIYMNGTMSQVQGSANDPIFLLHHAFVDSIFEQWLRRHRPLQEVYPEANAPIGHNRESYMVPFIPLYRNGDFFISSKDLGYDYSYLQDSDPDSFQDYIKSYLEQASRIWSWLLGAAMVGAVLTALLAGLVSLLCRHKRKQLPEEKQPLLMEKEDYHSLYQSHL

[4] = molecular target: T3, Tyrosinase (Agaricus bisporus) (UniProt O42713); assay: Potency index, ratio of kojic acid IC50 to compound IC50 for inhibition of mushroom tyrosinase using L-DOPA as substrate by ELISA
T3 sequence (whole entry): T1 sequence (O42713 whole entry)

[5] = molecular target: T3, Tyrosinase (Agaricus bisporus); assay: Non-competitive inhibition of mushroom tyrosinase using L-DOPA as substrate by Lineweaver-Burk double reciprocal plot analysis
B16-F10 [6] = assay: cells; conditions: Mus musculus
Description: Cytotoxicity against mouse B16-F10 cells assessed as reduction in cell viability by MTT assay

[7] = molecular target: T3, Tyrosinase (Agaricus bisporus); assay: Inhibition of mushroom tyrosinase using L-DOPA as substrate at 0.5 uM in presence of 0.005 to 1.2 mM Cu2+ by ELISA
HFF = assay: cells; conditions: Homo sapiens
Description: Cytotoxicity against human HFF cells assessed as reduction in cell viability by MTT assay

Tyrosinase [8] = molecular target: T1, Tyrosinase; assay: Competitive inhibition of mushroom tyrosinase using L-DOPA as substrate by Lineweaver-Burk double reciprocal plot analysis
B16-F10 [9] = assay: Antimelanogenic activity against mouse B16-F10 cells assessed as reduction of melanin content at 5 uM measured after 24 hrs by microplate reader assay; type: functional, cell-based
Tyrosinase [10] = molecular target: T1, Tyrosinase; assay: Inhibition of mushroom tyrosinase using L-tyrosine as substrate measured after 15 mins by microplate reader analysis
Tyrosinase [11] = molecular target: T1, Tyrosinase; assay: Inhibition of mushroom tyrosinase using L-tyrosine as substrate measured after 30 mins by microplate reader analysis
Tyrosinase [12] = molecular target: T1, Tyrosinase; assay: Inhibition of mushroom tyrosinase using L-tyrosine as substrate by HPLC analysis
[13] = compound: COc1cc(C(C)=O)ccc1OCc1cn(Cc2cc(=O)c(O)co2)nn1; assay: (§1) Mixed-type of inhibition of mushroom tyrosinase assessed as Vmax using L-DOPA as substrate at 0.1 uM measured at 475 nm by Lineweaver-Burk double reciprocal plot analysis (reference value: […] to […] deltaOD/min); conditions: Agaricus bisporus
[14] = compound: Cc1ccc(C(C)C)cc1OCc1cn(Cc2cc(=O)c(O)co2)nn1; assay: as §1; conditions: Agaricus bisporus
[15] = compound: O=c1cc(OCc2cn(Cc3cc(=O)c(O)co3)nn2)c2ccccc2o1; assay: as §1; conditions: Agaricus bisporus
[16] = compound: O=c1cc(OCc2cn(Cc3cc(=O)c(O)co3)nn2)c2ccccc2o1; assay: Mixed-type of inhibition of mushroom tyrosinase assessed as Vmax using L-DOPA as substrate at 0.5 uM measured at 475 nm by Lineweaver-Burk double reciprocal plot analysis (reference value: […] deltaOD/min); conditions: Agaricus bisporus
[17] = compound: COc1cc(C(C)=O)ccc1OCc1cn(Cc2cc(=O)c(O)co2)nn1; assay: (§2) Mixed-type of inhibition of mushroom tyrosinase assessed as Km using L-DOPA as substrate at 0.025 uM by Lineweaver-Burk double reciprocal plot analysis (reference value: […] to […] mM); conditions: Agaricus bisporus
[18] = compound: Cc1ccc(C(C)C)cc1OCc1cn(Cc2cc(=O)c(O)co2)nn1; assay: as §2; conditions: Agaricus bisporus
[19] = compound: O=c1cc(OCc2cn(Cc3cc(=O)c(O)co3)nn2)c2ccccc2o1; assay: as §2; conditions: Agaricus bisporus
[20] = compound: COc1cc(C(C)=O)ccc1OCc1cn(Cc2cc(=O)c(O)co2)nn1; assay: (§3) Mixed-type of inhibition of mushroom tyrosinase assessed as Km using L-DOPA as substrate at 0.05 uM by Lineweaver-Burk double reciprocal plot analysis (reference value: […] to […] mM); conditions: Agaricus bisporus
[21] = compound: Cc1ccc(C(C)C)cc1OCc1cn(Cc2cc(=O)c(O)co2)nn1; assay: as §3; conditions: Agaricus bisporus
[22] = compound: O=c1cc(OCc2cn(Cc3cc(=O)c(O)co3)nn2)c2ccccc2o1; assay: as §3; conditions: Agaricus bisporus
[23] = compound: COc1cc(C(C)=O)ccc1OCc1cn(Cc2cc(=O)c(O)co2)nn1; assay: (§4) Mixed-type of inhibition of mushroom tyrosinase assessed as Km using L-DOPA as substrate at 0.1 uM by Lineweaver-Burk double reciprocal plot analysis (reference value: […] to […] mM); conditions: Agaricus bisporus
[24] = compound: Cc1ccc(C(C)C)cc1OCc1cn(Cc2cc(=O)c(O)co2)nn1; assay: as §4; conditions: Agaricus bisporus
[25] = compound: O=c1cc(OCc2cn(Cc3cc(=O)c(O)co3)nn2)c2ccccc2o1; assay: as §4; conditions: Agaricus bisporus
[26] = compound: COc1cc(C(C)=O)ccc1OCc1cn(Cc2cc(=O)c(O)co2)nn1; assay: (§5) Mixed-type of inhibition of mushroom tyrosinase assessed as Vmax using L-DOPA as substrate at 0.025 uM measured at 475 nm by Lineweaver-Burk double reciprocal plot analysis (reference value: […] to […] deltaOD/min); conditions: Agaricus bisporus
[27] = compound: Cc1ccc(C(C)C)cc1OCc1cn(Cc2cc(=O)c(O)co2)nn1; assay: as §5; conditions: Agaricus bisporus
[28] = compound: O=c1cc(OCc2cn(Cc3cc(=O)c(O)co3)nn2)c2ccccc2o1; assay: as §5; conditions: Agaricus bisporus
[29] = compound: COc1cc(C(C)=O)ccc1OCc1cn(Cc2cc(=O)c(O)co2)nn1; assay: (§6) Mixed-type of inhibition of mushroom tyrosinase assessed as Vmax using L-DOPA as substrate at 0.05 uM measured at 475 nm by Lineweaver-Burk double reciprocal plot analysis (reference value: […] to […] deltaOD/min); conditions: Agaricus bisporus
[30] = compound: Cc1ccc(C(C)C)cc1OCc1cn(Cc2cc(=O)c(O)co2)nn1; assay: as §6; conditions: Agaricus bisporus
[31] = compound: O=c1cc(OCc2cn(Cc3cc(=O)c(O)co3)nn2)c2ccccc2o1; assay: as §6; conditions: Agaricus bisporus

Molecule: C=CCc1ccc(OCc2cn(Cc3cc(=O)c(O)co3)nn2)c(OC)c1
Activity [1]: inactive
IC50 (Tyrosinase [2]): 1.07 µM

Molecule: COc1cc(C=O)cc(OC)c1OCc1cn(Cc2cc(=O)c(O)co2)nn1
Activity [1]: inactive
IC50 (Tyrosinase [2]): 3.75 µM

Molecule: C/C=C/c1ccc(O)c(OC)c1
IC50 (Tyrosinase [3]): 33.3 µM

Molecule: COc1cc(C=O)ccc1OCc1cn(Cc2cc(=O)c(O)co2)nn1
Activity [1]: inactive
IC50 (Tyrosinase [2]): 1.99 µM

Molecule: CC(=O)c1ccc(OCc2cn(Cc3cc(=O)c(O)co3)nn2)cc1
Activity [1]: inactive
IC50 (Tyrosinase [2]): 1.21 µM

Molecule: O=C(O)c1ccc(OCc2cn(Cc3cc(=O)c(O)co3)nn2)cc1
Activity [1]: inactive
IC50 (Tyrosinase [2]): 3.13 µM

Molecule: COc1cc(C=O)ccc1O [VANILLIN]
IC50 (Tyrosinase [10]): 4100 µM

Molecule: COc1ccc(C=O)cc1OCc1cn(Cc2cc(=O)c(O)co2)nn1
Activity [1]: inactive
IC50 (Tyrosinase [2]): 1.95 µM

Molecule: Oc1ccc2c(c1)OCO2
IC50 (Tyrosinase [11]): 6.7 µM

Molecule: COc1ccc(C=O)cc1O [ISOVANILLIN]
IC50 (Tyrosinase [12]): > 500 µM

Molecule: C=CCc1ccc(O)c(OC)c1 [EUGENOL]
IC50 (Tyrosinase [10]): 923 µM

B1: Tyrosinase (Agaricus bisporus), O42713 (protein)
chain: T1 sequence (O42713 whole entry)
Vmax [13]: 0.183 deltaOD/min
Vmax [14]: 0.192 deltaOD/min
Vmax [15]: 0.122 deltaOD/min
Vmax [16]: 0.021 deltaOD/min
Km [17]: 1580 µM
Km [18]: 1520 µM
Km [19]: 1710 µM
Km [20]: 1920 µM
Km [21]: 1830 µM
Km [22]: 2020 µM
Km [23]: 2110 µM
Km [24]: 2020 µM
Km [25]: 2250 µM
Vmax [26]: 0.232 deltaOD/min
Vmax [27]: 0.241 deltaOD/min
Vmax [28]: 0.21 deltaOD/min
Vmax [29]: 0.208 deltaOD/min
Vmax [30]: 0.219 deltaOD/min
Vmax [31]: 0.176 deltaOD/min

The next lines start with results.

IC50 (Tyrosinase [2]): 0.52 µM
Molecule: C/C=C/c1ccc(OCc2cn(Cc3cc(=O)c(O)co3)nn2)c(OC)c1
Activity [1]: inactive

Ratio IC50 [4]: 133
IC50 (Tyrosinase [2]): 0.06 µM
Molecule: O=c1cc(Cn2cc(COc3ccc4c(c3)OCO4)nn2)occ1O
Activity [1]: inactive

IC50 (Tyrosinase [2]): 0.46 µM
Molecule: COC(=O)c1ccc(OCc2cn(Cc3cc(=O)c(O)co3)nn2)cc1
Activity [1]: inactive

IC50 (Tyrosinase [2]): 1.05 µM
Molecule: O=Cc1ccc(OCc2cn(Cc3cc(=O)c(O)co3)nn2)cc1
Activity [1]: inactive

Ratio IC50 [4]: > 460
Kis [5]: 0.12 µM
IC50 (B16-F10 [6]): 143 µM
inhibition [7]: inactive
Ki (Tyrosinase [8]): 0.04 µM
IC50 (Tyrosinase [2]): 0.02 µM
Molecule: O=c1cc(OCc2cn(Cc3cc(=O)c(O)co3)nn2)c2ccccc2o1
Activity [1]: inactive
IC50 (HFF): 194 µM
Activity (B16-F10 [9]): Active

Ratio IC50 [4]: 133
Kis [5]: 0.21 µM
IC50 (B16-F10 [6]): 408 µM
Ki (Tyrosinase [8]): 0.09 µM
IC50 (Tyrosinase [2]): 0.07 µM
Molecule: Cc1ccc(C(C)C)cc1OCc1cn(Cc2cc(=O)c(O)co2)nn1
Activity [1]: inactive
IC50 (HFF): 193 µM
Activity (B16-F10 [9]): Active

IC50 (Tyrosinase [2]): 0.23 µM
Molecule: O=c1ccc2ccc(OCc3cn(Cc4cc(=O)c(O)co4)nn3)cc2o1
Activity [1]: inactive

IC50 (Tyrosinase [2]): 0.69 µM
Molecule: Cc1ccc(C(C)C)c(OCc2cn(Cc3cc(=O)c(O)co3)nn2)c1
Activity [1]: inactive

Ratio IC50 [4]: 133
Kis [5]: 0.19 µM
IC50 (B16-F10 [6]): 416 µM
Ki (Tyrosinase [8]): 0.07 µM
IC50 (Tyrosinase [2]): 0.03 µM
Molecule: COc1cc(C(C)=O)ccc1OCc1cn(Cc2cc(=O)c(O)co2)nn1
Activity [1]: inactive
IC50 (HFF): 213 µM
